# Assay results published in patent US9358224B2, “Pharmaceutical formulation comprising a phosphodiesterase inhibitor” (CHIESI FARMACEUTICI S.p.A., priority 2011, dated 2016).
# Test: Chemical stability study of the pMDI formulation at 25° C./60% RH
# Assay type: physicochemical
# Conditions: 1 and 3 months at 25° C./60% RH
# Experimental: Physical and chemical stability of the formulation reported in table 1 has been assessed in a stability study at 1 and 3 months at 25° C./60% relative humidity (RH).
# Chemical stability and performances data of the formulation are reported in Table 2, wherein “mean delivered dose intra-can” means the mean delivered dose of ten actuations on the same can (3 actuations at the beginning, 4 actuations in the middle and 3 actuations at the end of the life of the can).
smiles,measurement,value
"CS(=O)(=O)Nc1ccc(C(=O)OC(Cc2c(Cl)c[n+]([O-])cc2Cl)c2ccc(OC(F)F)c(OCC3CC3)c2)cc1OCC1CC1 (single isomer, unassigned; (-)) [Compound C2, (−)-3-Cyclopropylmethoxy-4-methanesulfonylamino-benzoic acid 1-(3-cyclopropylmethoxy-4-difluoromethoxy-phenyl)-2-(3,5-dichloro-1-oxy-pyridin-4-yl)-ethyl ester]",chemical stability of C2 in the formulation (in words),no degradation during stability
